Columns and labels:
[1] = molecular target: T1, human α1H T-type channels (Homo sapiens, UniProt O95180); experiment: T-type calcium channel block, whole cell patch clamp in HEK cells (α1H); assay type: cell-based; conditions: HEK cells, patch clamp, mainly non-inactivated protocol; values above 10 μM shown as 10 μM; read-out: T-type Calcium Channel Block α1H IC50
T1 construct: expressed in transfected cells; host or cells: HEK 293

[2] = molecular target: T2, human α1G T-type channels (Homo sapiens, UniProt O43497); experiment: T-type calcium channel block, whole cell patch clamp in HEK cells (α1G); assay type: cell-based; conditions: HEK cells, patch clamp, mainly non-inactivated protocol; values above 10 μM shown as 10 μM, below 0.30 μM shown as 0.30 μM; read-out: T-type Calcium Channel Block α1G IC50
T2 construct: expressed in transfected cells; host or cells: HEK 293
T2 sequence (O43497 whole entry): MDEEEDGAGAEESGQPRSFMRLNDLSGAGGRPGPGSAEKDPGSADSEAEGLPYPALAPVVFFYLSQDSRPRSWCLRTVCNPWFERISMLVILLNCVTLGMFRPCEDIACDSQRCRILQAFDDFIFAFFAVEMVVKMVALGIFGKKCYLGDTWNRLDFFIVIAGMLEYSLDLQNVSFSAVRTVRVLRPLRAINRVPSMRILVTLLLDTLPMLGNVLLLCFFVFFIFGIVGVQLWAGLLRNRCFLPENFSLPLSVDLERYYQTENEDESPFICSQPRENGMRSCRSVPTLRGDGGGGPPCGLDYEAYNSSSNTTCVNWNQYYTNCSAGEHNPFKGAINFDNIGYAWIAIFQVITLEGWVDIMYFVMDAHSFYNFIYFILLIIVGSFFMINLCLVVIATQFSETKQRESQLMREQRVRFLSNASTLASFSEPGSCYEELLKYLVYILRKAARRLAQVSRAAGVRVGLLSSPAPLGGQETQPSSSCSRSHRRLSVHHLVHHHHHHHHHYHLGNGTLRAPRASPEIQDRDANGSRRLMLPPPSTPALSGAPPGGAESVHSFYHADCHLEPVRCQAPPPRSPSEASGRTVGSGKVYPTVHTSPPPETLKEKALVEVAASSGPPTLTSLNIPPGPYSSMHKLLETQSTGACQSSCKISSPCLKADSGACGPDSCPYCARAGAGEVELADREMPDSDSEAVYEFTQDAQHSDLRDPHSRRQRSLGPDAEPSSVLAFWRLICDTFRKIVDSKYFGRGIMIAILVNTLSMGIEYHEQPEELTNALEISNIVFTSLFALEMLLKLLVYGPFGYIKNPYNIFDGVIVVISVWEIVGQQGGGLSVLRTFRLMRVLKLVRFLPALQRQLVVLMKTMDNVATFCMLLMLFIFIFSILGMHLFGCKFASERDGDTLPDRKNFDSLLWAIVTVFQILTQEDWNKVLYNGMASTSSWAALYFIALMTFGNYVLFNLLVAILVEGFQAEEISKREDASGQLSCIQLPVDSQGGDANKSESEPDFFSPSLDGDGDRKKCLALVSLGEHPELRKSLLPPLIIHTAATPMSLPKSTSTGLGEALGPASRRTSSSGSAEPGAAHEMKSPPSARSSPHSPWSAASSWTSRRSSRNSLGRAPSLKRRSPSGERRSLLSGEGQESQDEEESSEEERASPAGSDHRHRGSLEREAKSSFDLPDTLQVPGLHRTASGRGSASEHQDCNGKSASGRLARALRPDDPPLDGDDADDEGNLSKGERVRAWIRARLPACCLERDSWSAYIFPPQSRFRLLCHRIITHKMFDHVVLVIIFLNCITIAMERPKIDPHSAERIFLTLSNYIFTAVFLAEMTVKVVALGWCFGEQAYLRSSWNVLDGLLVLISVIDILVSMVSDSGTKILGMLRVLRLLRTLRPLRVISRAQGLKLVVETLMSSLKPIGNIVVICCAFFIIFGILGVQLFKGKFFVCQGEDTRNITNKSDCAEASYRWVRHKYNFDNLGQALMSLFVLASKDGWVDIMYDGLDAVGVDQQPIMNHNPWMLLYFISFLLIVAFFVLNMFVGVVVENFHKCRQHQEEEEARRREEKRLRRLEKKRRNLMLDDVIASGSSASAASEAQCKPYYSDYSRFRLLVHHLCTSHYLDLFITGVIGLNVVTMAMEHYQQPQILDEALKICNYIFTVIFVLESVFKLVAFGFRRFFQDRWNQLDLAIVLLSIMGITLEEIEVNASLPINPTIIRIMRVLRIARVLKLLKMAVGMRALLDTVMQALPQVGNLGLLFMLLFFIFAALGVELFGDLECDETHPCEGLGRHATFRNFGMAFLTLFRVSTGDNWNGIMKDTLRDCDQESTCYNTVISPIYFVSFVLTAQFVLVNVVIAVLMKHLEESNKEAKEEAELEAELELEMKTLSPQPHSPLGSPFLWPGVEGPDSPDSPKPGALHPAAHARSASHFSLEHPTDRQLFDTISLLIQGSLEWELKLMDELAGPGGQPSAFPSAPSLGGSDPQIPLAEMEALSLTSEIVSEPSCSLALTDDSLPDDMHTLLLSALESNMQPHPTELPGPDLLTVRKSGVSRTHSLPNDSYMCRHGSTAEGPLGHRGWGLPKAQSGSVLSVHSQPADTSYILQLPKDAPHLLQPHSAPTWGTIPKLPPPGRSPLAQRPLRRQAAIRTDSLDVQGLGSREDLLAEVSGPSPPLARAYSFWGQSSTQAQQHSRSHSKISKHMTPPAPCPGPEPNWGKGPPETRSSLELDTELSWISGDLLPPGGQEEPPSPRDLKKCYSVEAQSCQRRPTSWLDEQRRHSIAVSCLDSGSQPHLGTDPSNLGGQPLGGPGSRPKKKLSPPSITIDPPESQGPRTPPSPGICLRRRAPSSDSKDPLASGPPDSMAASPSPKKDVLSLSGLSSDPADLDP

T1 sequence (O95180 whole entry): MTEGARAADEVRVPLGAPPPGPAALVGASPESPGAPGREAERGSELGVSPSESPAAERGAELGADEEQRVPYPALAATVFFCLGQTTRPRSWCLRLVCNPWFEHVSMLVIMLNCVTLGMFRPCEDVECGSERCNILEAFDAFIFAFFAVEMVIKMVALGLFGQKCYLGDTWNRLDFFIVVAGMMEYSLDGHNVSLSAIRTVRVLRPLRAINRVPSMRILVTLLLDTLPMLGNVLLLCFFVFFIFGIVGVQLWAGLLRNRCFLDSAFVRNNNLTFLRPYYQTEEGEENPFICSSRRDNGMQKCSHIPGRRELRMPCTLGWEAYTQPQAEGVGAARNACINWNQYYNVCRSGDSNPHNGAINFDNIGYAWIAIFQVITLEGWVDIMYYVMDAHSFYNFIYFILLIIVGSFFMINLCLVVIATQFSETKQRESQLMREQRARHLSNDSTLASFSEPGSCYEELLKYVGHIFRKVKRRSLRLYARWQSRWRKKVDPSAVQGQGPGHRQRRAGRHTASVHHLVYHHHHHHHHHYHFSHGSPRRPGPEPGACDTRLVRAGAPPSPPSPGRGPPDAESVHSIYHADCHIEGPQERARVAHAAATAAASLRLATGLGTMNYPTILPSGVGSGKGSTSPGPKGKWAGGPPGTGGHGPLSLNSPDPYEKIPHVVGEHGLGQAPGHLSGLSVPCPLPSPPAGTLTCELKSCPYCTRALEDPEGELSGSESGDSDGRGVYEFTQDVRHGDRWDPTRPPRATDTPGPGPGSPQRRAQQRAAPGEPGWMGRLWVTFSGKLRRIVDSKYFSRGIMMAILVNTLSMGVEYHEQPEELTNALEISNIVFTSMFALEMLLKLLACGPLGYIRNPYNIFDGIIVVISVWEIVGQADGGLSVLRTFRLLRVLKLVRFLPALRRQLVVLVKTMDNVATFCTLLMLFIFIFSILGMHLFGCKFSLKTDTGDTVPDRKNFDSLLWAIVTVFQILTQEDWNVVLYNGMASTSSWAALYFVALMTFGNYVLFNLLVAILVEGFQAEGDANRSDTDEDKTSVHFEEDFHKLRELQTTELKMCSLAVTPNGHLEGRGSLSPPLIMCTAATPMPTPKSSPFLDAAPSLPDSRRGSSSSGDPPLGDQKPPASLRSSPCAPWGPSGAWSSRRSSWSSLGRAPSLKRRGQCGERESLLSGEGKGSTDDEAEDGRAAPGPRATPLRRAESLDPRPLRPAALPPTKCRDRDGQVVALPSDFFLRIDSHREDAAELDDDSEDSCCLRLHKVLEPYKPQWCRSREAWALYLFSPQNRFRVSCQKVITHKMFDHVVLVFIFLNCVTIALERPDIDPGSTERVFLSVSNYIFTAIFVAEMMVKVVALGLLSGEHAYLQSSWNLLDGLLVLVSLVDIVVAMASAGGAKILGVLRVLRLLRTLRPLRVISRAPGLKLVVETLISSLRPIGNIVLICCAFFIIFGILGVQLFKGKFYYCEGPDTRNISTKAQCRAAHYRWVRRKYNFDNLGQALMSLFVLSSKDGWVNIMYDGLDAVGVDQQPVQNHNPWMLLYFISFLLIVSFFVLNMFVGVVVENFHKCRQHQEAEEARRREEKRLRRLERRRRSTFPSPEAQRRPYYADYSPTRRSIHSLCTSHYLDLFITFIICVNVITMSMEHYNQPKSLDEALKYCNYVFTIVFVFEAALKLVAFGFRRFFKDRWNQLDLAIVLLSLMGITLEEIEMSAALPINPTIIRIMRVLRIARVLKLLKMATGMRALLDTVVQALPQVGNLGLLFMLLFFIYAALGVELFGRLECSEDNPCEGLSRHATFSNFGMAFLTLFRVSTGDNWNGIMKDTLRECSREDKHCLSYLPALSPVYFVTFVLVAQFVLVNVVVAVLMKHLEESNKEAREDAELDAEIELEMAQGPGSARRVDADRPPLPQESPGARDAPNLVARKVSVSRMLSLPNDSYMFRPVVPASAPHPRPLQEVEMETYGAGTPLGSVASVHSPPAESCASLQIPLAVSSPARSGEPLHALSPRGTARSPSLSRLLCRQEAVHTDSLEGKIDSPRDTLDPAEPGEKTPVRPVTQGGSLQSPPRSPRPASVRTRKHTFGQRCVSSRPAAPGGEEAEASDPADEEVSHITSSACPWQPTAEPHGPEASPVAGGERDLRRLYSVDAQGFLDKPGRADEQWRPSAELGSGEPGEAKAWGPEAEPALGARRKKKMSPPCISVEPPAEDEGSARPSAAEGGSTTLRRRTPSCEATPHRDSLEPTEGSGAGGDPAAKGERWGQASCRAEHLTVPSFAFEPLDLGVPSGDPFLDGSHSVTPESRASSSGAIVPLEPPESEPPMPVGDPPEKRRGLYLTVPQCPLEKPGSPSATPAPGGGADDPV

Compound	IC50 [1] [µM]	IC50 [2] [µM]
CC(C)(C)C(=O)NCCN1CCC(CNC(=O)c2cc(F)cc(C(F)(F)F)c2)CC1 [Compound 294, 3-fluoro-N-((1-(2-pivalamidoethyl)piperidin-4-yl)methyl)-5-(trifluoromethyl)benzamide]	0.81	0.57
Cc1cc(C)cc(C(=O)NCC2CCN(CCNC(=O)C(C)(C)C)CC2)c1 [Compound 295, 3,5-dimethyl-N-((1-(2-pivalamidoethyl)piperidin-4-yl)methyl)benzamide]	1.26	1.34
CC(C)(C)C(=O)NCCN1CCC(CNC(=O)c2cccc(C(F)(F)F)c2)CC1 [Compound 296, N-((1-(2-pivalamidoethyl)piperidin-4-yl)methyl)-3-(trifluoromethyl)benzamide]	1.1	0.61
CC(C)(C)C(=O)NCCN1CCC(CNC(=O)/C=C/c2cc(F)cc(F)c2)CC1 [Compound 297, (E)-3-(3,5-difluorophenyl)-N-((1-(2-pivalamidoethyl)piperidin-4-yl)methyl)acrylamide]	> 10	> 10
CC(C)(C)C(=O)NCCN1CCC(CNC(=O)c2cc(Cl)cc(Cl)c2)CC1 [Compound 298, 3,5-dichloro-N-((1-(2-pivalamidoethyl)piperidin-4-yl)methyl)benzamide]	0.28	< 0.3
CC(C)(C)C(=O)NCCN1CCC(CNC(=O)c2cccc(Cl)c2)CC1 [Compound 299, 3-chloro-N-((1-(2-pivalamidoethyl)piperidin-4-yl)methyl)benzamide]	1.98	1.21
CC(C)(C)C(=O)NCCN1CCC(CNC(=O)/C=C/c2cc(Cl)cc(Cl)c2)CC1 [Compound 300, (E)-3-(3,5-dichlorophenyl)-N-((1-(2-pivalamidoethyl)piperidin-4-yl)methyl)acrylamide]	3.25	2.81
CC(C)(C)C(=O)NCCN1CCC(CNC(=O)c2cc(Cl)cc(C(F)(F)F)c2)CC1 [Compound 301, 3-chloro-N-((1-(2-pivalamidoethyl)piperidin-4-yl)methyl)-5-(trifluoromethyl)benzamide]	0.45	< 0.3
CC(C)(C)C(=O)NCCN1CCC(CNC(=O)c2cc(Br)cc(C(F)(F)F)c2)CC1 [Compound 302, 3-bromo-N-((1-(2-pivalamidoethyl)piperidin-4-yl)methyl)-5-(trifluoromethyl)benzamide]	0.3	< 0.3
COc1cc(C(=O)NCC2CCN(CCNC(=O)C(C)(C)C)CC2)cc(C(F)(F)F)c1 [Compound 303, 3-methoxy-N-((1-(2-pivalamidoethyl)piperidin-4-yl)methyl)-5-(trifluoromethyl)benzamide]	0.6	< 0.3
CC(C)(C#N)NC(=O)CN1CCC(CNC(=O)c2cc(C(F)(F)F)cc(C(F)(F)F)c2)CC1 [Compound 304, N-((1-(2-(2-cyanopropan-2-ylamino)-2-oxoethyl)piperidin-4-yl)methyl)-3,5-bis(trifluoromethyl)benzamide]	0.37	< 0.3
CCOC1CCN(C(=O)CN2CCC(CNC(=O)c3cc(C(F)(F)F)cc(C(F)(F)F)c3)CC2)CC1 [Compound 305, N-((1-(2-(4-ethoxypiperidin-1-yl)-2-oxoethyl)piperidin-4-yl)methyl)-3,5-bis(trifluoromethyl)benzamide]	4.45	7.42
O=C(NCC1CCN(CCNS(=O)(=O)C2CCC2)CC1)c1cc(F)cc(C(F)(F)F)c1 [Compound 306, N-((1-(2-(cyclobutanesulfonamido)ethyl)piperidin-4-yl)methyl)-3-fluoro-5-(trifluoromethyl)benzamide]	0.39	0.34
O=C(NCC1CCN(CCNS(=O)(=O)C2CCCC2)CC1)c1cc(F)cc(C(F)(F)F)c1 [Compound 307, N-((1-(2-(cyclopentanesulfonamido)ethyl)piperidin-4-yl)methyl)-3-fluoro-5-(trifluoromethyl)benzamide]	0.34	< 0.3
O=C(NCC1CCN(CCNS(=O)(=O)CCCF)CC1)c1cc(F)cc(C(F)(F)F)c1 [Compound 308, 3-fluoro-N-((1-(2-(3-fluoropropylsulfonamido)ethyl)piperidin-4-yl)methyl)-5-(trifluoromethyl)benzamide]	0.88	1.23
CC(C)(C)C(=O)NCCN1CCC(CNC(=O)c2cc(F)cc(Cl)c2)CC1 [Compound 309, 3-chloro-5-fluoro-N-((1-(2-pivalamidoethyl)piperidin-4-yl)methyl)benzamide]	0.35	0.85
CC(C)(C)C(=O)NCCN1CCC(CNC(=O)c2cc(C(F)(F)F)ccn2)CC1 [Compound 310, N-((1-(2-pivalamidoethyl)piperidin-4-yl)methyl)-4-(trifluoromethyl) picolinamide]	> 10	> 10
O=C(CCC(F)(F)F)NCCN1CCC(CNC(=O)c2cccc(OC(F)(F)F)c2)CC1 [Compound 311, N-((1-(2-(4,4,4-trifluorobutanamido)ethyl)piperidin-4-yl)methyl)-3-(trifluoromethoxy) benzamide]	0.33	2.65
Cc1cc(C)cc(C(=O)NCC2CCN(CCNC(=O)CCC(F)(F)F)CC2)c1 [Compound 312, 3,5-dimethyl-N-((1-(2-(4,4,4-trifluorobutanamido)ethyl)piperidin-4-yl)methyl)benzamide]	0.75	4.26
O=C(CCC(F)(F)F)NCCN1CCC(CNC(=O)c2cccc(C(F)(F)F)c2)CC1 [Compound 313, N-((1-(2-(4,4,4-trifluorobutanamido)ethyl)piperidin-4-yl)methyl)-3-(trifluoromethyl)benzamide]	0.62	6.31

The next lines start with the values.

IC50 [1] [µM]	IC50 [2] [µM]	Compound
9.24	> 10	O=C(/C=C/c1cc(F)cc(F)c1)NCC1CCN(CCNC(=O)CCC(F)(F)F)CC1 [Compound 314, (E)-N-(2-(4-((3-(3,5-difluorophenyl)acrylamido)methyl)piperidin-1-yl)ethyl)-4,4,4-trifluorobutanamide]
1.47	9.9	O=C(CCC(F)(F)F)NCCN1CCC(CNC(=O)c2cccc(Cl)c2)CC1 [Compound 315, 3-chloro-N-((1-(2-(4,4,4-trifluorobutanamido)ethyl)piperidin-4-yl)methyl)benzamide]
5.83	> 10	O=C(/C=C/c1cc(Cl)cc(Cl)c1)NCC1CCN(CCNC(=O)CCC(F)(F)F)CC1 [Compound 316, (E)-N-(2-(4-((3-(3,5-dichlorophenyl)acrylamido)methyl)piperidin-4-1-yl)ethyl)-4,4,4-trifluorobutanamide]
0.56	0.66	COc1cc(C(=O)NCC2CCN(CCNC(=O)CCC(F)(F)F)CC2)cc(C(F)(F)F)c1 [Compound 317, 3-methoxy-N-((1-(2-(4,4,4-trifluorobutanamido)ethyl)piperidin-4-yl)methyl)-5-(trifluoromethyl)benzamide]
0.87	0.5	COc1cc(F)cc(C(=O)NCC2CCN(CCNS(=O)(=O)C(C)C)CC2)c1 [Compound 318, 3-fluoro-5-methoxy-N-((1-(2-(1-methylethylsulfonamido)ethyl)piperidin-4-yl)methyl)benzamide]
0.15	< 0.3	CC(C)S(=O)(=O)NCCN1CCC(CNC(=O)c2cc(Br)cc(Br)c2)CC1 [Compound 319, 3,5-dibromo-N-((1-(2-(1-methylethylsulfonamido)ethyl)piperidin-4-yl)methyl)benzamide]
1.62	0.76	COc1cc(Cl)cc(C(=O)NCC2CCN(CCNS(=O)(=O)C(C)C)CC2)c1 [Compound 320, 3-chloro-5-methoxy-N-((1-(2-(1-methylethylsulfonamido)ethyl)piperidin-4-yl)methyl)benzamide]
1.92	1.33	COc1cc(F)cc(C(=O)NCC2CCN(CCNS(=O)(=O)C3CC3)CC2)c1 [Compound 321, N-((1-(2-(cyclopropanesulfonamido)ethyl)piperidin-4-yl)methyl)-3-fluoro-5-methoxybenzamide]
2.14	4.05	COc1cc(Cl)cc(C(=O)NCC2CCN(CCNS(=O)(=O)C3CC3)CC2)c1 [Compound 322, 3-chloro-N-((1-(2-(cyclopropanesulfonamido)ethyl)piperidin-4-yl)methyl)-5-methoxybenzamide]
2.66	1.87	O=C(NCC1CCN(CCNS(=O)(=O)C2CC2)CC1)c1cccc(Br)c1 [Compound 323, 3-bromo-N-((1-(2-(cyclopropanesulfonamido)ethyl)piperidin-4-yl)methyl)benzamide]
> 10	> 10	COc1ccc(C(=O)NCC2CCN(CCNS(=O)(=O)C3CC3)CC2)cc1OC [Compound 324, N-((1-(2-(cyclopropanesulfonamido)ethyl)piperidin-4-yl)methyl)-3,4-dimethoxybenzamide]
3.39	6.58	COc1cc(F)cc(C(=O)NCC2CCN(CCNS(=O)(=O)C(F)(F)F)CC2)c1 [Compound 325, 3-fluoro-5-methoy-N-((1-(2-(trifluoromethylsulfonamido)ethyl)piperidin-4-yl)methyl)benzamide]
6.99	> 10	COc1cc(Cl)cc(C(=O)NCC2CCN(CCNS(=O)(=O)C(F)(F)F)CC2)c1 [Compound 326, 3-chloro-5-methoxy-N-((1-(2-(trifluoromethylsulfonamido)ethyl)piperidin-4-yl)methyl)benzamide]
0.74	< 0.3	COc1cc(C(=O)NCC2CCN(CCNS(=O)(=O)C(F)(F)F)CC2)cc(C(F)(F)F)c1 [Compound 327, 3-methoxy-5-(trifluoromethyl)-N-((1-(2-(trifluoromethylsulfonamido)ethyl)piperidin-4-yl)methyl)benzamide]
